In this experiment the target is T1, AR (Homo sapiens, UniProt P10275, T878A).
T1 sequence (P10275 1-920 T878A): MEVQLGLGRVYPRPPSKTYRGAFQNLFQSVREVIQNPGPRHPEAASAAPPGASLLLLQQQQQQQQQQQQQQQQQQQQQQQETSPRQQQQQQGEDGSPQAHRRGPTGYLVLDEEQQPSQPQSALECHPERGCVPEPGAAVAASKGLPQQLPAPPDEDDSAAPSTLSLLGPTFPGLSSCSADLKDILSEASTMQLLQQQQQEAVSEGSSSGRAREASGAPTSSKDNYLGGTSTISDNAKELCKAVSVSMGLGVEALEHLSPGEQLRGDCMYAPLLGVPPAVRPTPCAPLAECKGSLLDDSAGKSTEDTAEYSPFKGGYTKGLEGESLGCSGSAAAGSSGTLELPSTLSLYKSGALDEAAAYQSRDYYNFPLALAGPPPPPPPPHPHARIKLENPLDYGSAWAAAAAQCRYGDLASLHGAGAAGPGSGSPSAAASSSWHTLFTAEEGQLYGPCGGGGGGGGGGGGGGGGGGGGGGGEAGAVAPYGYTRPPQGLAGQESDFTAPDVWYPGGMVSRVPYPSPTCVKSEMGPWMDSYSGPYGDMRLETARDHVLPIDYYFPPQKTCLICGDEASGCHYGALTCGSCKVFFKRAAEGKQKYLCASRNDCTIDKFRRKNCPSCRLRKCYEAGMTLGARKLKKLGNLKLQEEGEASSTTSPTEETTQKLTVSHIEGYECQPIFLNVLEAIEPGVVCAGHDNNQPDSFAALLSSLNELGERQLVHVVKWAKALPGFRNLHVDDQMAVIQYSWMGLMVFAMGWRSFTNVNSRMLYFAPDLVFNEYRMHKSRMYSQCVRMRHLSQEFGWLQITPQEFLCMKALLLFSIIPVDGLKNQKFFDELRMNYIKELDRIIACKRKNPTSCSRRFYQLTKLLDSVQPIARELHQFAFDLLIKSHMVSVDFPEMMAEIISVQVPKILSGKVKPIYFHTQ
The experiment in a line: Effects of compounds on AR expression in LNCaP cells (ELISA, DC50). Particulars: 24 hours of drug treatment, AR by ELISA. Type of experiment: cell-based. Also on record: Measurement of the Effects of Drugs on the Expression of AR in Cells by ELISA Method; endogenous in cells; host or cells: LNCaP. As for the experimental part: Activity Assay Example 1: Effects of Compounds on AR Expression in LNCaP Cells
1. Cell Line and Cell Culture
Human prostate cancer cells LNCaP (Shanghai Chinese Academy of Sciences Cell Bank). LNCaP was cultured in 1640 medium containing 10% fetal bovine serum. The cells grow in clusters, with weak adhesion to the bottom of the culture flask, slow proliferation, with a multiplication time of 72 h. The cells are closely adhered to each other and need to be digested with 0.05% trypsin containing 0.025% EDTA. The cells were passaged every 3 days. The cells were cultured at 37° C. and 5% CO2 in a humidified incubator
2. Cell plating: The supernatant was discarded, and the Lncap cells in the logarithmic growth phase were taken, washed with PBS once, and added with appropriate 0.05% trypsin digestion solution to be fully digested into single cell suspension, and centrifuged, resuspended and counted to make the number of cells about 15,000 per well, then inoculated in a 96-well plate, placed at 37° C., 5% CO2 and cultured overnight for 24 h.
3. Preparation and Addition of Compound Solutions
About 2 mg of each compound was weighed and dissolved in DMSO to make the stock solution with a concentration of 10 mmol/L. Dilution process (final concentration dilution: 2, 0.667, 0.222, 0.074, 0.0245, 0.008, 0.003, 0.001, 0.0003, 0.0001 μmol/L): 10 centrifuge tubes with a volume of 1.5 mL were taken and numbered 1, 2, 3, 4, 5, 6, 7, 8, 9, and 10, 80 μL DMSO was added to tube No. 1, and 60 μL DMSO was added to tubes No. 2 to No. 10, 20 μL of the stock solution was pipetted to tube No. 1 and mixed well; 30 μL was pipetted from tube No. 1 into tube No. 2 and mixed well. 30 μL was pipetted from tube No. 2 into tube No. 3 and mixed well, and so forth, to obtain samples No. 4-10, and to obtain working solutions of compounds of different concentrations respectively. 2 μL was pipetted from the above-mentioned tubes No. 1-10 into each corresponding sterile deep-well plates, added with 198 μL of culture medium, and mixed well. 11 ul was added to each well of the 96-well cell plate cultured overnight to obtain the corresponding desired concentrations (2, 0.667, 0.222, 0.074, 0.0245, 0.008, 0.003, 0.001, 0.0003, 0.0001 μmol/L).
4. Measurement of the Effects of Drugs on the Expression of AR in Cells by ELISA Method
After 24 hours of drug treatment, the supernatant was removed, and 200 μL of PBS was added to wash cells, and then the supernatant was removed, and 100 μL of cell lysate was added to lyse cells on ice for 20 min, then the cell lysate was centrifuged at 4000 rpm for 20 min at 4° C. and the supernatant was taken for later use. The measurement steps of the supernatant were according to the ELISA kit instructions:
4.1 The slats required for the test were taken out from the sealed bag that has been equilibrated to room temperature. Please put the unused slats and desiccant back into the aluminum foil bag and compress the self-sealing strip, seal the bag, and store at 4° C.
4.2 Standards and sample diluents were added to blank wells, and different concentrations of standards (10 ul/well) and sample diluents (90 ul/well) were added to the remaining corresponding wells, and the reaction wells were sealed with sealing tape, and refrigerated at 4° C. overnight.
4.3 Primary antibody was diluted with dilution buffer to the corresponding concentration and added to each well in 100 ul/well. The reaction wells were sealed with sealing tape and incubated at 37° C. for 60 min.
4.4 Secondary antibody was diluted with dilution buffer to the corresponding concentration and added to each well in 100 ul/well. The reaction wells were sealed with sealing tape and incubated at 37° C. for 30 min.
4.5 The reaction wells were added with 100 ul/well of substrate (TMB) and incubated at room temperature for 30 min.
4.6 The reaction wells were added with 100 ul/well of stop solution, mixed well and then the OD450 value was measured with a microplate reader. […]

Structures are written as SMILES.

For `Cc1ncsc1-c1ccc(CNC(=O)[C@@H]2C[C@@H](O)CN2C(=O)[C@@H]2CCCN2C(=O)COCCCCOc2ccc(-c3ncc(N4C(=S)N(c5ccc(C#N)c(C(F)(F)F)c5F)C(=O)C4(C)C)cc3F)cc2F)cc1` [Compound A142], the DC50 was greater than 2000 nM. Then `Cc1ncsc1-c1ccc([C@H](C)NC(=O)[C@@H]2C[C@@H](O)CN2C(=O)[C@@H](NC(=O)COCCC(F)COc2c(F)cc(-c3ncc(N4C(=S)N(c5ccc(C#N)c(C(F)(F)F)c5F)C(=O)C4(C)C)cc3F)cc2F)C(C)(C)C)cc1` (stereo partly drawn) [Compound A149], with 111 nM; and `CC1(C)C(=O)N(c2ccc(C#N)c(C(F)(F)F)c2F)C(=S)N1c1cnc(-c2ccc(OC3CCN(C(=O)COc4ccc5c(c4)C(=O)N(C4CCC(=O)NC4=O)C5=O)CC3)c(F)c2)c(F)c1` (stereo not drawn) [Compound A42], with 122 nM.

For `Cc1ncsc1-c1ccc(CNC(=O)[C@@H]2C[C@@H](O)CN2C(=O)[C@@H](NC(=O)COCCC(F)(F)COc2ccc(-c3ncc(N4C(=S)N(c5ccc(C#N)c(C(F)(F)F)c5F)C(=O)C4(C)C)cc3F)cc2F)C(C)(C)C)cc1` [Compound A163], the DC50 came to 171 nM. Under `COc1c(C#N)ccc(N2C(=O)C(C)(C)N(c3cnc(-c4ccc(OC5CCN(C(=O)COc6cccc7c6C(=O)N(C6CCC(=O)NC6=O)C7=O)CC5)cc4F)c(F)c3)C2=S)c1F` (stereo not drawn) [Compound A195] stands 404 nM; under `Cc1ncsc1-c1ccc(CNC(=O)[C@@H]2C[C@@H](O)CN2C(=O)[C@@H](NC(=O)COCCCCNC(=O)/C=C/c2ccc(N3C(=S)N(c4ccc(C#N)c(C(F)(F)F)c4F)C(=O)C3(C)C)cn2)C(C)(C)C)cc1` [Compound A170], 946 nM; under `Cc1ncsc1-c1ccc(CNC(=O)[C@@H]2C[C@@H](O)CN2C(=O)[C@@H](NC(=O)CCCn2cc(COc3ccc(-c4ncc(N5C(=S)N(c6ccc(C#N)c(C(F)(F)F)c6F)C(=O)C5(C)C)cc4F)cc3F)nn2)C(C)(C)C)cc1` [Compound A96], 54.9 nM. Take `CC(C)(C)[C@H](NC(=O)COCCCCOc1ccc(-c2ccc(N3C(=S)N(c4ccc(C#N)c(C(F)(F)F)c4F)C(=O)C3(C)C)cn2)cc1C(F)(F)F)C(=O)N1C[C@H](O)C[C@H]1C(=O)NCc1ccc(C(N)=O)cc1` [Compound A121]: the DC50 worked out at 336 nM. Then `Cc1ncsc1-c1ccc(CNC(=O)[C@@H]2C[C@@H](O)CN2C(=O)[C@@H](NC(=O)COCC(F)CCOc2ccc(-c3ncc(N4C(=S)N(c5ccc(C#N)c(C(F)(F)F)c5F)C(=O)C4(C)C)cc3F)c(C(F)(F)F)c2)C(C)(C)C)cc1` (stereo partly drawn) [Compound A166], with 144 nM. Under `CC1(C)C(=O)N(c2ccc(C#N)c(C(F)(F)F)c2F)C(=S)N1c1ccc(-c2ccc(OC3CCN(C(=O)COc4cccc5c4C(=O)N(C4CCC(=O)NC4=O)C5=O)C3)cc2)nc1` (stereo not drawn) [Compound A44] stands greater than 2000 nM; under `Cc1ncsc1-c1ccc(CNC(=O)[C@@H]2C[C@@H](O)CN2C(=O)[C@@H](NC(=O)COCCCC(=O)N(Cc2ccccc2)c2ccc(-c3ccc(N4C(=S)N(c5ccc(C#N)c(C(F)(F)F)c5F)C(=O)C4(C)C)cn3)cc2)C(C)(C)C)cc1` [Compound A67], 248 nM; under `Cc1ncsc1-c1ccc(CNC(=O)[C@@H]2C[C@@H](O)CN2C(=O)[C@@H](NC(=O)COc2ncc(N3C(=S)N(c4ccc(C#N)c(C(F)(F)F)c4F)C(=O)C3(C)C)cc2F)C(C)(C)C)cc1` [Compound A264], 870 nM. Then `Cc1ncsc1-c1ccc(CNC(=O)[C@@H]2C[C@@H](O)CN2C(=O)[C@@H](NC(=O)COCC(F)(F)CCOc2ccc(-c3ncc(N4C(=S)N(c5ccc(C#N)c(C(F)(F)F)c5F)C(=O)C4(C)C)cc3F)c(C(F)(F)F)c2)C(C)(C)C)cc1` [Compound A168], with 159 nM; and `Cc1ncsc1-c1c[nH]c([C@@H]2C[C@@H](O)CN2C(=O)[C@@H](NC(=O)COCCCCOc2ccc(-c3ccc(N4C(=S)N(c5ccc(C#N)c(C(F)(F)F)c5F)C(=O)C4(C)C)cn3)cc2)C(C)(C)C)n1` [Compound A198], with 42.8 nM.

In turn, `CC1(C)C(=O)N(c2ccc(C#N)c(C(F)(F)F)c2F)C(=S)N1c1cnc(-c2cc(F)c(OC3CCN(C(=O)COc4ccc5c(c4)C(=O)N(C4CCC(=O)NC4=O)C5=O)CC3)c(F)c2)c(F)c1` (stereo not drawn) [Compound A189] registered a DC50 of 329 nM. Regarding `Cc1ncsc1-c1ccc(CNC(=O)[C@@H]2C[C@@H](O)CN2C(=O)[C@@H](NC(=O)COCCCCN2CCN(c3ccc(N4C(=S)N(c5ccc(C#N)c(C(F)(F)F)c5F)C(=O)C4(C)C)cn3)CC2)C(C)(C)C)cc1` [Compound A106], the DC50 was 402 nM. Then `Cc1ncsc1-c1ccc(CNC(=O)[C@@H]2C[C@@H](O)CN2C(=O)[C@@H](NC(=O)c2ccc(CC(=O)Nc3ccc(-c4ccc(N5C(=S)N(c6ccc(C#N)c(C(F)(F)F)c6F)C(=O)C5(C)C)cn4)cc3)cc2)C(C)(C)C)cc1` [Compound A244], with 173 nM; and `Cc1ncsc1-c1ccc(CNC(=O)[C@@H]2C[C@@H](O)CN2C(=O)[C@@H](NC(=O)COCCOCCOc2ncc(N3C(=S)N(c4ccc(C#N)c(C(F)(F)F)c4F)C(=O)C3(C)C)cc2F)C(C)(C)C)cc1` [Compound A265], with 381 nM; and `CNC(=O)c1ccc(-c2c[nH]c([C@@H]3C[C@@H](O)CN3C(=O)[C@@H](NC(=O)COCCCCOc3ccc(-c4ccc(N5C(=S)N(c6ccc(C#N)c(C(F)(F)F)c6F)C(=O)C5(C)C)cn4)cc3)C(C)(C)C)n2)cc1` [Compound A234], with 26.1 nM.

For `Cn1cncc1-c1c[nH]c([C@@H]2C[C@@H](O)CN2C(=O)[C@@H](NC(=O)COCCCCOc2ccc(-c3ccc(N4C(=S)N(c5ccc(C#N)c(C(F)(F)F)c5F)C(=O)C4(C)C)cn3)cc2)C(C)(C)C)n1` [Compound A232], the DC50 worked out at 41.3 nM. With `CC(C)(C)[C@H](NC(=O)COCCCCOc1ccc(-c2ncc(N3C(=S)N(c4ccc(C#N)c(C(F)(F)F)c4F)C(=O)C3(C)C)cc2F)c(C(F)(F)F)c1)C(=O)N1C[C@H](O)C[C@H]1C(=O)NCc1ccc(C(N)=O)cc1` [Compound A131], the DC50 stood at 34.8 nM.
